Laboratory results published in patent US9693556B2, “Herbicidal pyridazinone derivatives” (SYNGENTA LIMITED, priority 2011, dated 2017).

How the values were obtained:
Assay type in all cases: in vivo
Solanum nigrum (SOLNI) [1] = experiment: Pre-emergence herbicidal glasshouse test on Solanum nigrum; conditions: for PRE Application SOLNI herbicidal damage (five point scale): pre-emergence, 1000 g/h, evaluated after 13 days
Outline: (§1)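 Scoring scale: 5=80-100%, 4=60-79%, 3=40-59%, 2=20-39%, 1=0-19% damage, assessed on day 13. Compound sprayed at 1000 g/h on soil-grown plants (day 1 pre-, day 8 post-emergence) kept at 24/16 °C, 14 h light.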

[2] = system: Echinochloa crus-galli (ECHCG); experiment: Post-emergence herbicidal glasshouse test on Echinochloa crus-galli; conditions: for POST Application ECHCG herbicidal damage (five point scale): post-emergence, 1000 g/h, evaluated after 13 days
Outline: as §1

Solanum nigrum (SOLNI) [3] = experiment: Post-emergence herbicidal glasshouse test on Solanum nigrum; conditions: for POST Application SOLNI herbicidal damage (five point scale): post-emergence, 1000 g/h, evaluated after 13 days
Outline: as §1

[4] = system: Ipomoea hederacea (IPOHE); experiment: Post-emergence herbicidal glasshouse test on Ipomoea hederacea; conditions: for POST Application IPOHE herbicidal damage (five point scale): post-emergence, 1000 g/h, evaluated after 13 days
Outline: as §1

[5] = system: Alopecurus myosuroides (ALOMY); experiment: Pre-emergence herbicidal glasshouse test on Alopecurus myosuroides; conditions: for PRE Application ALOMY herbicidal damage (five point scale): pre-emergence, 1000 g/h, evaluated after 13 days
Outline: as §1

Setaria faberi (SETFA) [6] = experiment: Post-emergence herbicidal glasshouse test on Setaria faberi; conditions: for POST Application SETFA herbicidal damage (five point scale): post-emergence, 1000 g/h, evaluated after 13 days
Outline: as §1

[7] = system: Echinochloa crus-galli (ECHCG); experiment: Pre-emergence herbicidal glasshouse test on Echinochloa crus-galli; conditions: for PRE Application ECHCG herbicidal damage (five point scale): pre-emergence, 1000 g/h, evaluated after 13 days
Outline: as §1

[8] = system: Alopecurus myosuroides (ALOMY); experiment: Post-emergence herbicidal glasshouse test on Alopecurus myosuroides; conditions: for POST Application ALOMY herbicidal damage (five point scale): post-emergence, 1000 g/h, evaluated after 13 days
Outline: as §1

[9] = system: Amaranthus retoflexus (AMARE); experiment: Post-emergence herbicidal glasshouse test on Amaranthus retoflexus; conditions: for POST Application AMARE herbicidal damage (five point scale): post-emergence, 1000 g/h, evaluated after 13 days
Outline: as §1

Setaria faberi (SETFA) [10] = experiment: Pre-emergence herbicidal glasshouse test on Setaria faberi; conditions: for PRE Application SETFA herbicidal damage (five point scale): pre-emergence, 1000 g/h, evaluated after 13 days
Outline: as §1

[11] = system: Ipomoea hederacea (IPOHE); experiment: Pre-emergence herbicidal glasshouse test on Ipomoea hederacea; conditions: for PRE Application IPOHE herbicidal damage (five point scale): pre-emergence, 1000 g/h, evaluated after 13 days
Outline: as §1

[12] = system: Amaranthus retoflexus (AMARE); experiment: Pre-emergence herbicidal glasshouse test on Amaranthus retoflexus; conditions: for PRE Application AMARE herbicidal damage (five point scale): pre-emergence, 1000 g/h, evaluated after 13 days
Outline: as §1

Row | Structure (SMILES) | PRE Application SOLNI herbicidal damage (five point scale) (Solanum nigrum (SOLNI) [1]) | POST Application ECHCG herbicidal damage (five point scale) [2] | POST Application SOLNI herbicidal damage (five point scale) (Solanum nigrum (SOLNI) [3]) | POST Application IPOHE herbicidal damage (five point scale) [4] | PRE Application ALOMY herbicidal damage (five point scale) [5] | POST Application SETFA herbicidal damage (five point scale) (Setaria faberi (SETFA) [6]) | PRE Application ECHCG herbicidal damage (five point scale) [7] | POST Application ALOMY herbicidal damage (five point scale) [8] | POST Application AMARE herbicidal damage (five point scale) [9] | PRE Application SETFA herbicidal damage (five point scale) (Setaria faberi (SETFA) [10]) | PRE Application IPOHE herbicidal damage (five point scale) [11] | PRE Application AMARE herbicidal damage (five point scale) [12] | also measured
1 | Cn1ncc(-c2cnc(-c3cccc(F)c3)n(C3CCCCC3)c2=O)c(O)c1=O [Compound 10.003, 3-cyclohexyl-2-(3-fluorophenyl)-5-(5-hydroxy-1-methyl-6-oxo-pyridazin-4-yl)pyrimidin-4-one] | – | – | – | – | – | – | – | – | – | – | – | – | PRE Application SOLNI (Solanum nigrum (SOLNI) [1]; pre-emergence application, Solanum nigrum, damage score 1-5): 1 (1=0-19% damage); POST Application ECHCG ([2]; post-emergence application, Echinochloa crus-galli, damage score 1-5): 5 (5=80-100% damage); POST Application SOLNI (Solanum nigrum (SOLNI) [3]; post-emergence application, Solanum nigrum, damage score 1-5): 5 (5=80-100% damage); POST Application IPOHE ([4]; post-emergence application, Ipomoea hederacea, damage score 1-5): 4 (4=60-79% damage); PRE Application ALOMY ([5]; pre-emergence application, Alopecurus myosuroides, damage score 1-5): 1 (1=0-19% damage); POST Application SETFA (Setaria faberi (SETFA) [6]; post-emergence application, Setaria faberi, damage score 1-5): 4 (4=60-79% damage); PRE Application ECHCG ([7]; pre-emergence application, Echinochloa crus-galli, damage score 1-5): 1 (1=0-19% damage); POST Application ALOMY ([8]; post-emergence application, Alopecurus myosuroides, damage score 1-5): 1 (1=0-19% damage); POST Application AMARE ([9]; post-emergence application, Amaranthus retoflexus, damage score 1-5): 5 (5=80-100% damage); PRE Application SETFA (Setaria faberi (SETFA) [10]; pre-emergence application, Setaria faberi, damage score 1-5): 1 (1=0-19% damage); PRE Application IPOHE ([11]; pre-emergence application, Ipomoea hederacea, damage score 1-5): 1 (1=0-19% damage); PRE Application AMARE ([12]; pre-emergence application, Amaranthus retoflexus, damage score 1-5): 5 (5=80-100% damage)
2 | Cn1ncc(-c2cccn(CC3CC3)c2=O)c(O)c1=O [Compound 9.006] | 1 (1=0-19% damage) | 1 (1=0-19% damage) | 3 (3=40-59% damage) | 2 (2=20-39% damage) | 1 (1=0-19% damage) | 2 (2=20-39% damage) | 1 (1=0-19% damage) | 2 (2=20-39% damage) | 3 (3=40-59% damage) | 1 (1=0-19% damage) | 1 (1=0-19% damage) | 1 (1=0-19% damage) | –
3 | CCCn1ncc(-c2c(Cl)cccc2Cl)c(O)c1=O [Compound 1.129] | 1 (1=0-19% damage) | 2 (2=20-39% damage) | 3 (3=40-59% damage) | 2 (2=20-39% damage) | 1 (1=0-19% damage) | 2 (2=20-39% damage) | 1 (1=0-19% damage) | 1 (1=0-19% damage) | 3 (3=40-59% damage) | 1 (1=0-19% damage) | 1 (1=0-19% damage) | 1 (1=0-19% damage) | –
4 | CCn1ncc(-c2ccc(Cl)cc2S(C)(=O)=O)c(O)c1=O [Compound 2.017] | 5 (5=80-100% damage) | 5 (5=80-100% damage) | 5 (5=80-100% damage) | 5 (5=80-100% damage) | 5 (5=80-100% damage) | 5 (5=80-100% damage) | 5 (5=80-100% damage) | 5 (5=80-100% damage) | 5 (5=80-100% damage) | 5 (5=80-100% damage) | 5 (5=80-100% damage) | 5 (5=80-100% damage) | –
5 | Cn1ncc(-c2ccc(Br)cc2S(C)(=O)=O)c(O)c1=O [Compound 1.081] | 5 (5=80-100% damage) | 5 (5=80-100% damage) | 5 (5=80-100% damage) | 5 (5=80-100% damage) | 5 (5=80-100% damage) | 5 (5=80-100% damage) | 5 (5=80-100% damage) | 5 (5=80-100% damage) | 5 (5=80-100% damage) | 5 (5=80-100% damage) | 2 (2=20-39% damage) | 5 (5=80-100% damage) | –
6 | COCCOCc1nc(C(F)(F)F)ccc1-c1cnn(C)c(=O)c1O [Compound 1.072] | 5 (5=80-100% damage) | 5 (5=80-100% damage) | 5 (5=80-100% damage) | 5 (5=80-100% damage) | 4 (4=60-79% damage) | 5 (5=80-100% damage) | 5 (5=80-100% damage) | 4 (4=60-79% damage) | 5 (5=80-100% damage) | 5 (5=80-100% damage) | 5 (5=80-100% damage) | 5 (5=80-100% damage) | –
7 | Cn1ncc(-c2cccn(-c3cccc(Cl)c3)c2=O)c(O)c1=O [Compound 1.143] | 1 (1=0-19% damage) | 2 (2=20-39% damage) | 4 (4=60-79% damage) | 1 (1=0-19% damage) | 2 (2=20-39% damage) | 1 (1=0-19% damage) | 1 (1=0-19% damage) | 2 (2=20-39% damage) | 1 (1=0-19% damage) | 1 (1=0-19% damage) | 1 (1=0-19% damage) | 3 (3=40-59% damage) | –
